Broadly, the IC50 is the concentration that gives 50% inhibition.

The assay deals with T1, human glucose-6-phosphate transporter (G6PT) (Homo sapiens, UniProt O43826, W138F).
T1 sequence (O43826 1-429 W138F): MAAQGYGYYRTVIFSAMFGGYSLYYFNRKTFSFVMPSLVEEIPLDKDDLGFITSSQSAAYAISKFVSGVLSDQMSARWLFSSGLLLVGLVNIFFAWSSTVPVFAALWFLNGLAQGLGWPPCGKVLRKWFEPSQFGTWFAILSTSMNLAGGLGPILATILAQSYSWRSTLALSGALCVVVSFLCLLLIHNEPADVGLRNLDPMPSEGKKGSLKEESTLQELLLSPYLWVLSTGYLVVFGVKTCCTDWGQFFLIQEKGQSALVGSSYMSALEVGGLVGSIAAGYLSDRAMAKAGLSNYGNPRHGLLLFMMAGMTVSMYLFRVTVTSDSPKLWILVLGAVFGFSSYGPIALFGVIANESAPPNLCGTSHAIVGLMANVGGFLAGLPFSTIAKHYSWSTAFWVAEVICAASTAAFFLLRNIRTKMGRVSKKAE
T1 sequence (P35575 1-357 partner): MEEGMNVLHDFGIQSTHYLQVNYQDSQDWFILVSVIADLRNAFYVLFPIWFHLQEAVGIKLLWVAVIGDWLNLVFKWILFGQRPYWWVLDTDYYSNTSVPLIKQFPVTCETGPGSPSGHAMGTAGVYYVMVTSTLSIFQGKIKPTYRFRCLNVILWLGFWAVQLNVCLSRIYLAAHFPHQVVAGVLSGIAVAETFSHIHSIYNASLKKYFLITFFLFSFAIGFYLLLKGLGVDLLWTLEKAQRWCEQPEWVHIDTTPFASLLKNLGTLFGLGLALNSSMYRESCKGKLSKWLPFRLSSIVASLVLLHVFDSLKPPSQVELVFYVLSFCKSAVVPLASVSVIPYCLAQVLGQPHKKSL
The class given is cell-based.

`O=C(/C=C/c1ccc(O)c(O)c1)O[C@@H]1C[C@](O)(C(=O)O)C[C@@H](O)[C@H]1O` [CHA, chlorogenic acid]: half-maximal inhibition (IC50) required 523 ± 210 µM.
